The numbers were not newly measured in US20070212388A1, “COMPOSITIONS COMPRISING POROUS ARTICLES AND USES IN IMPLANTABLE MEDICAL DEVICES” (Sahajanand Medical Technologies Pvt. Ltd., priority 2006, published 2007), which cites them from elsewhere.

Molecules are shown by their SMILES.

For the data set the following is noted: for solubility in water: general statement, no test described.

`O=c1c(-c2ccc(O)cc2)coc2cc(O)cc(O)c12` [Genistein, 5,7-dihydroxy-3-(4-hydroxyphenyl)-4H-1-benzopyran-4-one]: the solubility in water result was “practically insoluble in water”.
Take `O=c1c(-c2ccc(O)cc2)coc2cc(O[C@@H]3O[C@H](CO)[C@@H](O)[C@H](O)[C@H]3O)cc(O)c12` [Genistin]: the “water solubility relative to genistein” value (compared with genistein) is recorded as “greater water solubility than genistein”.
With `O=c1c(O)c(-c2ccc(O)c(O)c2)oc2cc(O)cc(O)c12` [Quercetin, 2-(3,4-dihydroxyphenyl)-3,5,7-trihydroxy-4H-1-benzopyran-4-one], the solubility in water result is reported as “practically insoluble in water”.
